Values of other authors as cited in US20050039221A1, “Phenotypic effects of ubiquinone deficiencies and methods of screening thereof” (priority 2001, published 2005).

Key:
[1] = system: complex II; details: synthetic DMQ2
[2] = system: complex I; details: synthetic DMQ2
[3] = rodents

| SMILES | Function as co-factor for electron transport from complex II [1] | Function as co-factor for electron transport from complex I [2] | Uptake of dietary UQ, share of the initially ingested ubiquinone [3] |
| --- | --- | --- | --- |
| COC1=CC(=O)C(C)=C(C/C=C(\C)CCC=C(C)C)C1=O [DMQ2] | more poorly | can function as a co-factor |  |
| COC1=C(OC)C(=O)C(C/C=C(\C)CC/C=C(\C)CC/C=C(\C)CC/C=C(\C)CC/C=C(\C)CC/C=C(\C)CC/C=C(\C)CC/C=C(\C)CC/C=C(\C)CCC=C(C)C)=C(C)C1=O [UQ, Ubiquinone] |  |  | 2-3% |
